ChEMBL document CHEMBL1141629, “Kinase-likeness and kinase-privileged fragments: toward virtual polypharmacology” (J Med Chem, 2008)

target: T1, Serine/threonine-protein kinase PAK 1 (Homo sapiens, UniProt Q13153); assay: Inhibition of PAK1 at 31 uM
T1 sequence (Q13153 whole entry): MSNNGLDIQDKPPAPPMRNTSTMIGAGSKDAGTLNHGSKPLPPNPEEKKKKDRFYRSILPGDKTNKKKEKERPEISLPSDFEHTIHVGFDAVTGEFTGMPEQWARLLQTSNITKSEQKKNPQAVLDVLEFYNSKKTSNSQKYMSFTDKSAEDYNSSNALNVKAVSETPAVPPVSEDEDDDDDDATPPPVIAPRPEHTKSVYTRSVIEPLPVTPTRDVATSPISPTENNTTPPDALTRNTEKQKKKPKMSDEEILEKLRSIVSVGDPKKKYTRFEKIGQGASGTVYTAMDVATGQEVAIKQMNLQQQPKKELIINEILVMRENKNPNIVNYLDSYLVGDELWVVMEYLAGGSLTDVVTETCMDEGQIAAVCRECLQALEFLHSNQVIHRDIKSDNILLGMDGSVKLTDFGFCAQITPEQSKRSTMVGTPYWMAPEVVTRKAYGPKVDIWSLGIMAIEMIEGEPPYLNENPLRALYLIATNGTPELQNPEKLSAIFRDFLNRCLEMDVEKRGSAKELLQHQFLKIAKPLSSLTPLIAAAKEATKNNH

Row | Compound | inhibition [%]
1 | Nc1nc(N)c2nc(-c3ccccc3)c(N)nc2n1 | 100
2 | Nc1nc2[nH]cnc2c(=S)[nH]1 | 31

target: Ribosomal protein S6 kinase beta-1 (Homo sapiens) (UniProt P23443); assay: Inhibition of p70S6K at 33 uM
Sequence (P23443 whole entry, looked up): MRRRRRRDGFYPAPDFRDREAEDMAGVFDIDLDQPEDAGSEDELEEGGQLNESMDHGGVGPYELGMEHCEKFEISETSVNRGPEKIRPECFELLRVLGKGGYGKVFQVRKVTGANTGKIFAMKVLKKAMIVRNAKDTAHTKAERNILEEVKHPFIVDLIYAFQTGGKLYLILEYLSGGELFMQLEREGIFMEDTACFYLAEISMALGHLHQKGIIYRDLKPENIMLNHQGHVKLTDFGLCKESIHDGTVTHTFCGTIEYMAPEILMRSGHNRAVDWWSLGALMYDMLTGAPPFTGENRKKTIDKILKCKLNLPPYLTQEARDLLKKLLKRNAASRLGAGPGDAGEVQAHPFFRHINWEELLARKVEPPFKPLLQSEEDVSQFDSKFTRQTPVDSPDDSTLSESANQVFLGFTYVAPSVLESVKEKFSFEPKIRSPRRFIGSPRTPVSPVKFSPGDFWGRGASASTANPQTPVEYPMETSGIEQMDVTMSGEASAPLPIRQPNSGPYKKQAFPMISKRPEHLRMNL

Row | Compound | inhibition [%]
3 | Nc1nc(N)c2nc(-c3ccccc3)c(N)nc2n1 | 95
4 | COc1c2occc2cc2ccc(=O)oc12 | 64

target: T2, Serine/threonine-protein kinase Sgk1 (Homo sapiens) (UniProt O00141); assay: Inhibition of SGK1 at 33 uM
T2 sequence (whole entry): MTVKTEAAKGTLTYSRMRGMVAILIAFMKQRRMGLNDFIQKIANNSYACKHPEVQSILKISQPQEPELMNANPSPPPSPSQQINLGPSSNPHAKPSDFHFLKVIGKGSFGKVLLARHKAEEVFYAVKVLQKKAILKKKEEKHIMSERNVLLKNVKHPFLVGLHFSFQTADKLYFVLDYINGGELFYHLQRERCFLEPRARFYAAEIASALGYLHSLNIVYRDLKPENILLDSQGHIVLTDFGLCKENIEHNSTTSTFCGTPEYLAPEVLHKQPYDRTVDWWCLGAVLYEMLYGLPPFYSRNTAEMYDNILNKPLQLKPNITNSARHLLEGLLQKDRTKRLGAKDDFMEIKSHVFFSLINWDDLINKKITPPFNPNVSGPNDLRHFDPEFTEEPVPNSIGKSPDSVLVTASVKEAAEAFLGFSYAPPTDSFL

Row | Compound | inhibition [%]
5 | Nc1nc(N)c2nc(-c3ccccc3)c(N)nc2n1 | 94
6 | O=C(O)c1cc(/N=N/c2ccc(S(=O)(=O)Nc3ccccn3)cc2)ccc1O | 70

target: T1, Serine/threonine-protein kinase PAK 1; assay: Inhibition of PAK1

Row | Compound | IC50 [µM]
7 | c1nc(N2CCOCC2)c2nc[nH]c2n1 | 18
8 | CC(Sc1ncnc2nc[nH]c12)c1ccccc1Cl (configuration not stated) | 23
9 | c1nc(NC2CCCC2)c2nc[nH]c2n1 | 18
10 | CCCCCSc1ncnc2nc[nH]c12 | 38
11 | c1nc2nc(NC3CCCCC3)ncc2[nH]1 | 31
12 | CC1CC(Nc2ncnc3nc[nH]c23)CC(C)(C)C1 (configuration not stated) | 23
